Assay results published in the METLIN SMRT retention time set (Domingo-Almenara et al. 2019).

Test: gradient 5% acetonitrile 3 min, to 50% in 2 min, to 85% in 15 min, held 3 min, 100 µL/min
Conditions: column: Zorbax Extend-C18 2.1 x 50 mm; eluents: water / acetonitrile, 0.1% formic acid
Procedure, shortened: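 Using water and acetonitrile that each contained 0.1% formic acid, mixtures of ~100 pure standards were separated at 100 μL/min on a Zorbax Extend-C18 column (2.1 × 50 mm, 1.8 μm). The HPLC fed a quadrupole time-of-flight mass spectrometer working in positive and negative ionization mode, with dead and dwell volumes of 40 μL and 900 μL. Data were acquired over 3 months. Retention time was read from computationally picked adduct peaks after manual inspection of each.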

## O=C(CSc1ccc(N2CCCC(C(=O)NC3CC3)C2)nn1)Nc1ccc(C(F)(F)F)cc1 (stereo not drawn)
  RP-LC retention time: 729 s

## O=C(NCCc1csc2nc(-c3cccs3)nn12)c1c(F)cccc1Cl
  RP-LC retention time: 792 s

## COCCc1noc(-c2nc(-c3ccc(C)cc3)no2)n1
  RP-LC retention time: 1120 s

## CCCCCn1c(=O)c2ccccc2n(Cc2nc(-c3cccc(OCC)c3)no2)c1=O
  RP-LC retention time: 1350 s

## COc1nn(C)cc1-c1nnc(SCC(=O)NCc2ccc(F)cc2)n1C
  RP-LC retention time: 594 s

## CCCN1CCn2cc(S(=O)(=O)Nc3ccc(OC)cc3)cc2C1=O
  RP-LC retention time: 715 s

## Cc1nc(-c2cn(C)c3ncccc23)sc1C(=O)N1CCN(c2ccccc2)CC1
  RP-LC retention time: 932 s

## CCSc1ccccc1C(=O)NCC1(CO)CC1
  RP-LC retention time: 640 s

## COc1ccc(F)cc1S(=O)(=O)N1C[C@@H](F)C[C@H]1C(=O)N1CCCCC1
  RP-LC retention time: 769 s

## COc1ccc(NC(=O)C2CCN(C(=O)C3Sc4ccccc4NC3=O)CC2)cc1OC (stereo not drawn)
  RP-LC retention time: 692 s

## CCn1cnc2cc(-c3noc(C4CC(=O)N(c5ccccc5)C4)n3)ccc21 (stereo not drawn)
  RP-LC retention time: 664 s

## CC(C)n1c(=O)oc2cc(-c3noc(-c4cccc(C#N)c4)n3)ccc21
  RP-LC retention time: 1090 s

## CCN(CC)CCNS(=O)(=O)c1cc(-c2nc(C)c(C)s2)sc1C
  RP-LC retention time: 656 s

## CCc1nc(-c2ccc(-c3noc(C(C)NC(=O)c4ccco4)n3)cc2)cs1 (stereo not drawn)
  RP-LC retention time: 980 s

## CC(C)CC(=O)N1CCC(Oc2nccnc2N(C)C)C1 (stereo not drawn)
  RP-LC retention time: 691 s

## CN(CC1CCOCC1)C(=O)Nc1ccc(F)c(Cl)c1
  RP-LC retention time: 797 s

## Cc1cc(C)cc(NC(=O)Cc2csc3nc(-c4cccc(Cl)c4)cn23)c1
  RP-LC retention time: 1070 s

## Cc1cc(N2CCN(S(=O)(=O)c3cc(F)ccc3F)CC2)nc(NC2CCCCC2)n1
  RP-LC retention time: 821 s

## Cc1ccc(-c2nc(C)c(C(=O)N3CCCC3)s2)cc1
  RP-LC retention time: 906 s

## O=C(Cn1ccc2ccccc21)N1CCN(c2ccc(-c3ccccn3)nn2)CC1
  RP-LC retention time: 652 s

## O=C(CSc1nnc(NC(=O)C2CC2)s1)NCc1ccc(F)cc1
  RP-LC retention time: 674 s

## O=c1c2nc(-c3ccc(F)cc3)cn2ccn1-c1ccc(F)cc1
  RP-LC retention time: 795 s

## O=C(CCCc1nc2ccccc2s1)N1CCC(CCOc2ccccc2)C1 (stereo not drawn)
  RP-LC retention time: 1050 s

## O=[N+]([O-])c1ccc(CSc2nnc(-c3cccc(S(=O)(=O)N4CCCC4)c3)o2)cc1
  RP-LC retention time: 937 s

## O=C(CN1CCN(c2ccccn2)CC1)N1N=CCC1c1ccccc1 (stereo not drawn)
  RP-LC retention time: 573 s

## COc1ccc(OC)c(-n2cc(C(=O)O)c3c2C(C(F)(F)F)CC(=O)N3)c1 (stereo not drawn)
  RP-LC retention time: 730 s

## CC(C)n1cnc2ccc(-c3noc(-c4cccs4)n3)cc21
  RP-LC retention time: 746 s

## CC(C)(C)n1ncc2c(=O)n(NC(=O)c3cc(=O)c4ccccc4o3)cnc21
  RP-LC retention time: 713 s

## CCC(=O)N1CCc2cc(N3CC(C(=O)Nc4ccc(SC)cc4)CC3=O)ccc21 (stereo not drawn)
  RP-LC retention time: 789 s

## COc1ccc(CNC(=O)c2cc3sccc3n2C)cc1
  RP-LC retention time: 894 s

## CNC(=O)c1ccc(Nc2c(-c3ccccc3)nc3cnccn23)cc1
  RP-LC retention time: 644 s

## CCOCCOC(=O)c1ccc(NC(=O)C(C)(C)C)cc1
  RP-LC retention time: 815 s

## O=C(c1ccc2nc(N3CCOCC3)sc2c1)N1CCN(c2ccccn2)CC1
  RP-LC retention time: 563 s
